Reference: PubChem BioAssay AID248 (DTP/NCI, 2004)
Values joined by “and” are separate entries in the source; they are usually repeats but may differ in a detail not shown here. Equal values may be shown once. Toxic doses and inconclusive results are not listed. Rule as the data show it: active = T/C of 150% or more; inactive = T/C below 125%.

Tested on: L1210 leukemia ip in BDF1 mice, survival T/C
Test: NCI In Vivo Anticancer Drug Screen. Data for tumor model L1210 Leukemia (intraperitoneal) in B6D2F1 (BDF1) mice
Settings: endpoint: mean survival time, higher = longer survival
Method in brief: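 In this screen, tumor-bearing mice given compound are compared to those given vehicle, and their survival values are reported as a treated-to-control quotient.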

[1] = dose: 100.0 mg/kg/injection, schedule: Q01DX001 (ip), vehicle: Klucel (hydroxypropylcellulose) (HPC)
[2] = dose: 200.0 mg/kg/injection, schedule: Q01DX001 (ip), vehicle: Klucel (hydroxypropylcellulose) (HPC)
[3] = dose: 400.0 mg/kg/injection, schedule: Q01DX001 (ip), vehicle: Klucel (hydroxypropylcellulose) (HPC)
[4] = dose: 100.0 mg/kg/injection, schedule: Q01DX009 (ip), vehicle: saline with Tween-80
[5] = dose: 100.0 mg/kg/injection, schedule: Q04DX002 (ip), vehicle: saline with Tween-80
[6] = dose: 100.0 mg/kg/injection, schedule: Q04DX003 (ip), vehicle: saline with Tween-80
[7] = dose: 200.0 mg/kg/injection, schedule: Q01DX009 (ip), vehicle: saline with Tween-80
[8] = dose: 200.0 mg/kg/injection, schedule: Q04DX002 (ip), vehicle: saline with Tween-80
[9] = dose: 400.0 mg/kg/injection, schedule: Q04DX002 (ip), vehicle: saline with Tween-80
[10] = dose: 100.0 mg/kg/injection, schedule: Q01DX009 (ip), vehicle: Klucel (hydroxypropylcellulose) (HPC)
[11] = dose: 200.0 mg/kg/injection, schedule: Q01DX009 (ip), vehicle: Klucel (hydroxypropylcellulose) (HPC)
[12] = dose: 400.0 mg/kg/injection, schedule: Q01DX009 (ip), vehicle: Klucel (hydroxypropylcellulose) (HPC)
[13] = dose: 100.0 mg/kg/injection, schedule: Q04DX003 (ip), vehicle: Klucel (hydroxypropylcellulose) (HPC)
[14] = dose: 200.0 mg/kg/injection, schedule: Q04DX003 (ip), vehicle: Klucel (hydroxypropylcellulose) (HPC)
[15] = dose: 400.0 mg/kg/injection, schedule: Q04DX003 (ip), vehicle: Klucel (hydroxypropylcellulose) (HPC)
[16] = dose: 50.0 mg/kg/injection, schedule: Q01DX009 (ip), vehicle: saline with Tween-80

Measured: T/C

Clc1cc(Cl)c(OCC#CI)c(Cl)c1Cl
inactive: dose: 6.25 mg/kg/injection, schedule: Q01DX009 (ip), vehicle: Klucel (hydroxypropylcellulose) (HPC) 100 % of control | dose: 12.5 mg/kg/injection, schedule: Q01DX009 (ip), vehicle: Klucel (hydroxypropylcellulose) (HPC) 97 % of control | dose: 25.0 mg/kg/injection, schedule: Q01DX009 (ip), vehicle: Klucel (hydroxypropylcellulose) (HPC) 92 % of control | dose: 50.0 mg/kg/injection, schedule: Q01DX009 (ip), vehicle: Klucel (hydroxypropylcellulose) (HPC) 96 % of control | dose: 75.0 mg/kg/injection, schedule: Q01DX009 (ip), vehicle: Klucel (hydroxypropylcellulose) (HPC) 98 % of control | dose: 115.0 mg/kg/injection, schedule: Q01DX009 (ip), vehicle: Klucel (hydroxypropylcellulose) (HPC) 94 % of control | dose: 170.0 mg/kg/injection, schedule: Q01DX009 (ip), vehicle: Klucel (hydroxypropylcellulose) (HPC) 93 % of control

CCCCCCCCCN(C)C(C)=O
inactive: dose: 75.0 mg/kg/injection, schedule: Q01DX001 (ip), vehicle: carboxymethylcellulose (CMC) 94 % of control | dose: 150.0 mg/kg/injection, schedule: Q01DX001 (ip), vehicle: carboxymethylcellulose (CMC) 91 % of control | dose: 300.0 mg/kg/injection, schedule: Q01DX001 (ip), vehicle: carboxymethylcellulose (CMC) 96 % of control

O=[N+]([O-])c1ccc(OCc2ccc(S(=O)(=O)Oc3cccnc3)cc2)c(Cl)c1
inactive: [1] 94 % of control | [2] 98 % of control | [3] 89 % of control

CCOC(=O)c1ccc(NC(=O)c2ccc(Cl)cc2Cl)cc1
inactive: dose: 50.0 mg/kg/injection, schedule: Q04DX003 (ip), vehicle: saline with Tween-80 102 % of control | [4] 96 % of control and 90 % of control | [5] 93 % of control and 113 % of control | [6] 98 % of control | [7] 97 % of control and 110 % of control | [8] 95 % of control and 91 % of control | dose: 200.0 mg/kg/injection, schedule: Q04DX003 (ip), vehicle: saline with Tween-80 98 % of control | [9] 102 % of control and 92 % of control

CC12CCC(=O)N1C(C(=O)O)CS2 (configuration not stated)
inactive: dose: 100.0 mg/kg/injection, schedule: Q04DX002 (ip), vehicle: saline 91 % of control | dose: 200.0 mg/kg/injection, schedule: Q04DX002 (ip), vehicle: saline 102 % of control | dose: 400.0 mg/kg/injection, schedule: Q04DX002 (ip), vehicle: saline 98 % of control

O=c1ccnc(SCc2ccc(Cl)cc2)[nH]1
inactive: dose: 110.0 mg/kg/injection, schedule: Q01DX Z (ip), vehicle: methylcellulose (MC) 87 % of control

Cc1ccc([N+](=O)[O-])cc1NC(=O)OCc1ccco1
inactive: [10] 103 % of control | [11] 97 % of control | [12] 94 % of control

Cc1cc(C)c2cc3cccc[n+]3cc2c1
inactive: dose: 2.0 mg/kg/injection, schedule: Q01DX015 (ip), vehicle: saline 100 % of control | dose: 4.0 mg/kg/injection, schedule: Q01DX001 (ip), vehicle: carboxymethylcellulose (CMC) 105 % of control | dose: 4.0 mg/kg/injection, schedule: Q01DX015 (ip), vehicle: saline 107 % of control | dose: 8.0 mg/kg/injection, schedule: Q01DX001 (ip), vehicle: carboxymethylcellulose (CMC) 107 % of control | dose: 16.0 mg/kg/injection, schedule: Q01DX001 (ip), vehicle: carboxymethylcellulose (CMC) 107 % of control

COC(=O)C1CC(=O)C(C(=O)OC)CC1=O (configuration not stated)
inactive: [10] 89 % of control | [11] 92 % of control | [12] 89 % of control

CC[N+](CC)(CC)CCCCCCCC[N+](CC)(CC)CC
inactive: dose: 0.78 mg/kg/injection, schedule: Q01DX009 (ip), vehicle: water 110 % of control | dose: 0.78 mg/kg/injection, schedule: Q04DX003 (ip), vehicle: saline 107 % of control | dose: 1.56 mg/kg/injection, schedule: Q01DX009 (ip), vehicle: water 111 % of control | dose: 1.56 mg/kg/injection, schedule: Q04DX003 (ip), vehicle: saline 104 % of control

COC(=O)C1=C(C)NC(=S)NC1c1ccc(N(CCCl)CCCl)cc1Cl (configuration not stated)
inactive: [13] 95 % of control | [14] 95 % of control | [15] 101 % of control

CCn1cc(C(=O)O)c(=O)c2ccc(-c3ccncc3)cc21
inactive: [10] 98 % of control | [13] 91 % of control | [11] 101 % of control | [14] 91 % of control | [12] 102 % of control | [15] 89 % of control

CCOc1ccc(NC(=S)NC(=O)C(C)Oc2ccccc2)cc1 (configuration not stated)
inactive: [16] 102 % of control | dose: 800.0 mg/kg/injection, schedule: Q04DX002 (ip), vehicle: saline with Tween-80 96 % of control and 101 % of control

CCCCCCCCC(O)(CCCCCCC)C(=O)O (configuration not stated)
inactive: dose: 100.0 mg/kg/injection, schedule: Q04DX002 (ip), vehicle: Klucel (hydroxypropylcellulose) (HPC) 95 % of control | dose: 200.0 mg/kg/injection, schedule: Q04DX002 (ip), vehicle: Klucel (hydroxypropylcellulose) (HPC) 117 % of control | dose: 400.0 mg/kg/injection, schedule: Q04DX002 (ip), vehicle: Klucel (hydroxypropylcellulose) (HPC) 115 % of control

c1ccc(N2CC2)cc1
inactive: [1] 105 % of control | [2] 100 % of control | [3] 96 % of control

[O-][n+]1ccccc1Cc1ccccc1
inactive: [16] 90 % of control | [4] 90 % of control | [5] 97 % of control | [7] 90 % of control | [8] 101 % of control | [9] 101 % of control

Cc1cccc(C)c1N=Nc1sc(N)nc1C
inactive: dose: 75.0 mg/kg/injection, schedule: Q01DX001 (ip), vehicle: acetone 114 % of control | dose: 150.0 mg/kg/injection, schedule: Q01DX001 (ip), vehicle: acetone 94 % of control | dose: 300.0 mg/kg/injection, schedule: Q01DX001 (ip), vehicle: acetone 110 % of control

Cc1cc([N+](=O)[O-])sc1[N+](=O)[O-]
inactive: dose: 25.0 mg/kg/injection, schedule: Q01DX009 (ip), vehicle: saline 108 % of control | dose: 50.0 mg/kg/injection, schedule: Q01DX009 (ip), vehicle: saline 97 % of control | dose: 100.0 mg/kg/injection, schedule: Q01DX009 (ip), vehicle: saline 110 % of control | dose: 100.0 mg/kg/injection, schedule: Q04DX003 (ip), vehicle: saline 101 % of control

O=C(OC1COC(OCc2ccccc2)C(OC(=O)c2ccccc2)C1OC(=O)c1ccccc1)c1ccccc1 (configuration not stated)
inactive: dose: 25.0 mg/kg/injection, schedule: Q04DX003 (ip), vehicle: saline with Tween-80 94 % of control | [6] 93 % of control and 87 % of control

O=C(CCn1cccc1)c1csc2ccccc12
inactive: dose: 10.0 mg/kg/injection, schedule: Q01DX001 (ip), vehicle: carboxymethylcellulose (CMC) 97 % of control | dose: 20.0 mg/kg/injection, schedule: Q01DX001 (ip), vehicle: carboxymethylcellulose (CMC) 98 % of control | dose: 40.0 mg/kg/injection, schedule: Q01DX001 (ip), vehicle: carboxymethylcellulose (CMC) 100 % of control | dose: 80.0 mg/kg/injection, schedule: Q01DX001 (ip), vehicle: carboxymethylcellulose (CMC) 100 % of control | dose: 200.0 mg/kg/injection, schedule: Q01DX001 (ip), vehicle: carboxymethylcellulose (CMC) 88 % of control
